Data set [1] concerns the target 5-hydroxytryptamine receptor 1D (Homo sapiens, UniProt P28221). The experiment in a line: Mean binding affinity towards 5-hydroxytryptamine 1D receptor using [3H]5-HT or [3H]-8-OH-DPAT as the radioligand.
For data set [2], the target named is T1, 5-hydroxytryptamine receptor 1B (Homo sapiens, UniProt P28222). Put plainly: Mean binding affinity towards 5-hydroxytryptamine 1B receptor using [3H]5-HT or [3H]-8-OH-DPAT as the radioligand.
Data set [3] deals with T2, 5-hydroxytryptamine receptor 1A (Homo sapiens, UniProt P08908).
T2 sequence (P08908 whole entry): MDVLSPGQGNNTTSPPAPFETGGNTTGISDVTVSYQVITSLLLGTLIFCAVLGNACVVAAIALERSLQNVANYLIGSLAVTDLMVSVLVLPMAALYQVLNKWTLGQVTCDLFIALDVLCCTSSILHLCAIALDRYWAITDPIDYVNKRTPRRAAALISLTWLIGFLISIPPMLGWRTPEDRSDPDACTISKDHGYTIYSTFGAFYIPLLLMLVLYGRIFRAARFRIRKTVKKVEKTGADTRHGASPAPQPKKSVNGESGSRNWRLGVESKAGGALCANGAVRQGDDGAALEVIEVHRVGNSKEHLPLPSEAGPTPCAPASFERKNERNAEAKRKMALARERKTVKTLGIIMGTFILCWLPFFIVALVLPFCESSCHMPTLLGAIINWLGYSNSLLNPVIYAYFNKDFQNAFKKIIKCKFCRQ
The experiment in a line: Mean binding affinity towards 5-hydroxytryptamine 1A receptor using [3H]-5-HT or [3H]8-OH-DPAT as the radioligand.

The nature of data set [4]: Brain/blood concentration after administration in rat. The data set is classed as ADME, tissue-based. The following applies: read-out: Brain/Blood concentration.
A short description of data set [5]: In vivo clearance after administration in rat. The format is ADME, organism-based. The following applies: blood, read-out: CLb.
A short description of data set [6]: Oral bioavailability in rat. The data set is classed as ADME, organism-based. The following applies: in vivo.
Data set [7] deals with T3, 5-hydroxytryptamine receptor 1A (Homo sapiens) (UniProt P08908).
T3 sequence (whole entry): T2 sequence (P08908 whole entry)
The experiment in a line: Partial agonist efficacy in the 5-HT1A GTPgammaS functional assay; Expressed as fraction of 5-HT efficacy.

Data set [8] has as its target T1, 5-hydroxytryptamine receptor 1B. The experiment in a line: Partial agonist efficacy in the 5-HT1B GTPgammaS functional assay; Expressed as fraction of 5-HT efficacy.
Data set [9] has as its target T3, 5-hydroxytryptamine receptor 1A (Homo sapiens). Put plainly: Partial agonist efficacy in the 5-HT1A GTPgammaS functional assay; Expressed as fraction of 5-HT efficacy; Inactive.

The structures appear in SMILES notation. pKi: −log10 of the molar value. Calls of active or inactive are those of the source. The rule behind the calls is not given here.

T1 sequence (P28222 whole entry): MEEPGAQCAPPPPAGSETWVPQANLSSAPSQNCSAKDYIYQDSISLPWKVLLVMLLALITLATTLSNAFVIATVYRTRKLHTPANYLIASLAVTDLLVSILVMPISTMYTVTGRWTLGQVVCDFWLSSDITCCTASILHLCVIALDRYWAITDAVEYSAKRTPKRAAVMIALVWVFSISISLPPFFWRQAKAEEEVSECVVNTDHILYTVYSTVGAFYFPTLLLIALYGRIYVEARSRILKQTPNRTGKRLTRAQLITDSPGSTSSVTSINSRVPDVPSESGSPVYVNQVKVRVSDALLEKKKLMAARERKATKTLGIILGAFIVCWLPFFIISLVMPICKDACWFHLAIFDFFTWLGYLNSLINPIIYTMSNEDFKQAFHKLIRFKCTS
Sequence of 5-hydroxytryptamine receptor 1D (P28221 whole entry): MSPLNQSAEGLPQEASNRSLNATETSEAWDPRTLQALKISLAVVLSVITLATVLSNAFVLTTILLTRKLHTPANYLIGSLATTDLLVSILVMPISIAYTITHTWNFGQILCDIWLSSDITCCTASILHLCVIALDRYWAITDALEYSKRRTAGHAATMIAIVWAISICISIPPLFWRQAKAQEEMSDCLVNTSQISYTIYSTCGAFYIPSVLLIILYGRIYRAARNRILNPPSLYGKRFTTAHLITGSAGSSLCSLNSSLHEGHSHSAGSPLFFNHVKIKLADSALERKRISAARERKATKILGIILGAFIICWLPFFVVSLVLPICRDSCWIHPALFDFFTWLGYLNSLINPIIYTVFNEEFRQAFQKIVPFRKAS

Usually pKi stands for the negative decadic logarithm of the Ki, by convention in mol/L. Low readings indicate a high Ki, high ones a low Ki. As to `Cc1cc(C(=O)N2CCc3cc4ccnc(N5CCN(C)CC5)c4cc32)c(C(F)(F)F)o1`, the figures for the pKi in data set [1], in data set [2] and in data set [3] were 8.10, 8.70 and 8.30, respectively.
In the case of `CN1CCN(c2nccc3cc4c(cc23)N(C(=O)c2cccc3ncccc23)CC4)CC1`, in data set [4], the Kp was found to be 0.2. Moreover, the pKi was 8.40 in data set [1], 9.10 in data set [2] and 8.40 in data set [3]. Besides, the clearance in data set [5] was found to be 75 mL/min/kg.
A word on the bioavailability: it is the share of a dose that reaches the circulation, judged against a reference dose that is usually intravenous. Read a high bioavailability as good availability. Consider `Cc1c(C(=O)N2CCc3cc4ccnc(N5CCN(C)CC5)c4cc32)cnn1-c1ccccc1`, for which, in data set [4], the Kp amounted to 1.1. The pKi in [1], in data set [2] and in data set [3] was 9.20 throughout. This compound also yielded a bioavailability in data set [6] of 40%. The Efficacy in data set [7] was 0.54; in [8] it was 0.59. In addition, the clearance in [5] came out at 32 mL/min/kg.
Regarding `Cc1nc(C)c(C(=O)N2CCc3cc4ccnc(N5CCN(C)CC5)c4cc32)o1`, the Kp in data set [4] stood at 0.5. Moreover, the pKi was 8.60 in [1], 7.80 in data set [2] and 8.20 in data set [3]. This compound returned a bioavailability in [6] of 55%. The clearance in data set [5] worked out at 39 mL/min/kg.
In the case of `CN1CCN(c2nccc3cc4c(cc23)N(C(=O)c2ccc(C(F)(F)F)nc2)CC4)CC1`, the results for the pKi in data set [1], in [2] and in data set [3] were 9.30, 9.60 and 8.50, respectively.
As for `CCc1c(C(=O)N2CCc3cc4ccnc(N5CCN6CCC[C@H]6C5)c4cc32)cnn1-c1ccc(C#N)cc1`, the pKi in data set [1] was 8.50; in data set [2], 8.70; in [3] it was 8.90.
For `CCc1c(C(=O)N2CCc3cc4ccnc(N5CCN6CCC[C@@H]6C5)c4cc32)cnn1-c1ccc(C#N)cc1`, the pKi was 9.00 in [1], 9.00 in data set [2] and 8.80 in [3].
For `CN1CCN(c2nccc3cc4c(cc23)N(C(=O)c2cnn3ccccc23)CC4)CC1`, the pKi was 8.90 in data set [1], 9.00 in data set [2] and 9.50 in data set [3].
Consider `CCc1c(C(=O)N2CCc3cc4ccnc(N5CCN(C)CC5)c4cc32)cnn1-c1ccc(C#N)cc1`, for which the Kp in [4] is 0.5. In addition, the pKi was 9.20 in [1], 9.00 in data set [2] and 8.90 in [3]. Further, in [6], the bioavailability turned out to be 50%. Besides, the figures for the Efficacy in data set [7] and in data set [8] were 0.33 and 0.47, respectively. Moreover, the clearance in data set [5] came out at 28 mL/min/kg.
Turning to `CCc1c(C(=O)N2CCc3cc4ccnc(N5CCN(C(C)C)CC5)c4cc32)cnn1-c1ccc(C#N)cc1`, the negative-log Ki (pKi) in data set [1] is 8.10; in [2] it was 8.40; in [3], 8.20.
Regarding `CCc1c(C(=O)N2CCc3cc4ccnc(N5C[C@@H](C)N[C@@H](C)C5)c4cc32)cnn1-c1ccc(C#N)cc1`, the pKi was 8.10 in [1], 8.10 in [2] and 7.50 in [3].
Turning to `CN1CCN(c2nccc3cc4c(cc23)N(C(=O)c2ccc(Cl)cc2)CC4)CC1`, the Kp in data set [4] is 1.3. The results for the pKi in data set [1], in [2] and in [3] were 9.30, 9.50 and 9.10, respectively. The results for the Efficacy in [7] and in [8] were 0.69 and 0.75, respectively. For the same compound, the clearance in data set [5] amounted to 29 mL/min/kg.
For `CN1CCN(c2nccc3cc4c(cc23)N(C(=O)c2ccccc2C(F)(F)F)CC4)CC1`, the pKi in data set [1] was 7.80; in data set [2], 7.80; in data set [3] it was 8.00. Also, the Efficacy entry in [9] was “inactive”. Moreover, in data set [8], the Efficacy was 0.23.
For the compound `CN1CCN(c2nccc3cc4c(cc23)N(C(=O)c2ccccc2Cl)CC4)CC1`, the pKi in data set [1] is 8.60; in data set [2] it was 8.90; in data set [3], 8.30. Further, the Efficacy in data set [7] and in [8] was 0.42 each time.
Consider `CN1CCN(c2nccc3cc4c(cc23)N(C(=O)c2ccc(C#N)cc2)CC4)CC1`, for which the Kp in data set [4] is 0.7. Also, the pKi in data set [1] is 9.10; in [2] it was 9.30; in data set [3], 9.00. For the same compound, the results for the Efficacy in data set [7] and in [8] were 0.84 and 0.86, respectively. Besides, the clearance in [5] came out at 19 mL/min/kg.
With `CCc1c(C(=O)N2CCc3cc4ccnc(N5CCN(CC)CC5)c4cc32)cnn1-c1ccc(C#N)cc1`, the negative-log Ki (pKi) is 8.60 in [1], 8.80 in [2] and 8.50 in [3].
With `CN1CCN(c2nccc3cc4c(cc23)N(C(=O)c2cnn(C)c2C(F)(F)F)CC4)CC1`, the Kp in [4] stood at 0.1. For the same compound, the pKi is 8.00 in [1], 8.30 in data set [2] and 8.20 in data set [3]. Further, the clearance in data set [5] is 48 mL/min/kg.
As for `CN1CCN(c2cc3c(cc2Cl)CCN3C(=O)Nc2ccc(-c3ccncc3)c3ccccc23)CC1`, the pKi was 8.70 in [1], 8.10 in data set [2] and 8.00 in data set [3].
`CCc1c(C(=O)N2CCc3cc4ccnc(N5CCNCC5)c4cc32)cnn1-c1ccc(C#N)cc1`: the figures for the pKi in data set [1], in data set [2] and in data set [3] were 8.60, 8.60 and 8.90, respectively.
